According to publication PMC10838382 (Cancer Drug Resistance, 2024):
Like-named read-outs stand apart in the source and are kept apart here.

Columns and labels:
MAXFTN MCF 10A = assay: cells; conditions: Homo sapiens, read-out: Relative ritonavir IC50
LXFA 737 = assay: 2D proliferation assay (CellTiter-Blue); conditions: read-out: Relative ritonavir IC50
PRXF 22Rv1 = assay: 2D proliferation assay (CellTiter-Blue); assay type: cell-based; conditions: Homo sapiens, read-out: Relative ritonavir IC50; PRXF 22Rv1; 2D proliferation assay
PC-3M = assay: 2D proliferation assay (CellTiter-Blue); conditions: Homo sapiens, read-out: Relative ritonavir IC50
LXFA EKVX = assay: cells; conditions: Homo sapiens, read-out: Relative ritonavir IC50
MAXFTN CAL-51 = assay: cells; conditions: Homo sapiens, CAL-51, read-out: Relative ritonavir IC50
DU-145 cells = conditions: NCI60 panel, read-out: IC50 value, anti-proliferative effect; cited from earlier work
PC-3 = assay: 2D proliferation assay (CellTiter-Blue); assay type: cell-based; conditions: Homo sapiens, read-out: Relative ritonavir IC50, PC-3
MAXFLB MCF7 = assay: cells; conditions: Homo sapiens, MCF7, read-out: Relative ritonavir IC50
PRXF DU-145 = assay: 2D proliferation assay (CellTiter-Blue); assay type: cell-based, human; conditions: 2D proliferation assay
MAXFTN MX1 = assay: 2D proliferation assay (CellTiter-Blue); conditions: read-out: Relative ritonavir IC50
OVXF 899 = assay: cells; conditions: read-out: Relative ritonavir IC50
OVXF NCI-ADR-RES = assay: cells; conditions: Homo sapiens, read-out: Relative ritonavir IC50
GXA 3011 = assay: cells; conditions: read-out: Relative ritonavir IC50
GXA NUGC-4 = assay: cells; conditions: Homo sapiens, NUGC-4, read-out: Relative ritonavir IC50
15 tumor cell lines = assay: 2D proliferation assay (CellTiter-Blue), panel of 15 tumor cell lines; conditions: at the concentration ranges tested; 2D proliferation assay
DU-145 [1] = conditions: read-out: IC50, single agent ritonavir; DU-145 proliferation assay; cited from earlier work
OVXF EFO-27 = assay: 2D proliferation assay (CellTiter-Blue); conditions: Homo sapiens, EFO-27, read-out: Relative ritonavir IC50
22Rv1 = assay: 3D clonogenic assay (soft agar); conditions: for IC50: Homo sapiens, 22Rv1, read-out: Cabazitaxel IC50, 22Rv1, 3D clonogenic assay
DU-145 [2] = assay: 3D clonogenic assay (soft agar); conditions: for IC50: Homo sapiens, DU-145, read-out: Cabazitaxel IC50, DU-145, 3D clonogenic assay
22Rv1DOC8 = assay: 3D clonogenic assay (soft agar); assay type: cell-based, human; conditions: 3D clonogenic assay; for IC50: 22Rv1DOC8, read-out: Cabazitaxel IC50; for Relative resistance: 22Rv1DOC8 vs 22Rv1
DU-145DOC10 = assay: 3D clonogenic assay (soft agar); assay type: cell-based, human; conditions: for Relative resistance: DU-145DOC10 vs DU-145; for IC50: Homo sapiens, DU-145DOC10

CC(C)c1nc(CN(C)C(=O)N[C@H](C(=O)N[C@@H](Cc2ccccc2)C[C@H](O)[C@H](Cc2ccccc2)NC(=O)OCc2cncs2)C(C)C)cs1 [Ritonavir]
IC50 (MAXFTN MCF 10A): > 30 µM | IC50 (LXFA 737): > 30 µM | IC50 (PRXF 22Rv1): 29.3 µM | IC50 (PC-3M): 23.3 µM | IC50 (LXFA EKVX): > 30 µM | IC50 (MAXFTN CAL-51): > 30 µM | IC50 (DU-145 cells): > 20 µM | IC50 (PC-3): 21.7 µM | IC50 (MAXFLB MCF7): > 30 µM | IC50 (PRXF DU-145; Homo sapiens, DU-145, read-out: Relative ritonavir IC50, PRXF DU-145): 16.2 µM | IC50 (PRXF DU-145; read-out: Relative ritonavir IC50, PRXF DU-145): 16.3 µM | IC50 (MAXFTN MX1): > 22.6 µM | IC50 (OVXF 899): 25.7 µM | IC50 (OVXF NCI-ADR-RES): > 30 µM | IC50 (GXA 3011): > 30 µM | IC50 (GXA NUGC-4): 1.27 µM | single agent activity (15 tumor cell lines): no considerable or only low activity | IC50 (DU-145 [1]): 3 µM | IC50 (OVXF EFO-27): > 30 µM

COc1cc2c(cc1OC)CN(CCc1ccc(NC(=O)c3cccc4c(=O)c5cccc(OC)c5[nH]c34)cc1)CC2 [Elacridar]
effect of elacridar alone on parental cells (22Rv1; 22Rv1 parental, data not shown): no effect | effect of elacridar alone on parental cells (DU-145 [2]; DU-145 parental, data not shown): no effect

CO[C@H]1C(=O)[C@]2(C)[C@@H](OC)C[C@H]3OC[C@@]3(OC(C)=O)[C@H]2[C@H](OC(=O)c2ccccc2)[C@]2(O)C[C@H](OC(=O)[C@H](O)[C@@H](NC(=O)OC(C)(C)C)c3ccccc3)C(C)=C1C2(C)C [Cabazitaxel]
IC50 (22Rv1DOC8; + ritonavir 32 µM): 0.0007 µM | Relative resistance (22Rv1DOC8; cabazitaxel + ritonavir 10 µM): 7.4 | Relative resistance (22Rv1DOC8; cabazitaxel + ritonavir 32 µM): 1.0 | Relative resistance (22Rv1DOC8; cabazitaxel without ritonavir): 13.6 | IC50 (22Rv1DOC8; Homo sapiens, + ritonavir 10 µM): 0.0052 µM | IC50 (22Rv1DOC8; Homo sapiens, + ritonavir 32 µM): 0.0006 µM | IC50 (22Rv1DOC8; Homo sapiens, without ritonavir): 0.0095 µM | IC50 (22Rv1; + ritonavir 10 µM): 0.0007 µM | IC50 (22Rv1; + ritonavir 32 µM): 0.0007 µM | IC50 (22Rv1; without ritonavir): 0.0007 µM | IC50 (DU-145 [2]; + ritonavir 10 µM): 0.0003 µM | IC50 (DU-145 [2]; without ritonavir): 0.0006 µM | Relative resistance (DU-145DOC10; cabazitaxel + ritonavir 10 µM, 3D clonogenic assay): 1.0 | Relative resistance (DU-145DOC10; cabazitaxel without ritonavir, 3D clonogenic assay): 2.5 | IC50 (DU-145DOC10; 3D clonogenic assay, + ritonavir 10 µM, read-out: Cabazitaxel IC50): 0.0006 µM | IC50 (DU-145DOC10; 3D clonogenic assay, without ritonavir, read-out: Cabazitaxel IC50): 0.0015 µM | IC50 (DU-145DOC10; cabazitaxel alone, Figure 7A, read-out: IC 50): 0.00146 µM
